# Source: patent US20250222018A1, “METHODS OF USING AVERMECTIN COMPOSITIONS FOR THE TREATMENT OF PAIN AND DOSING REGIMENS” (L4 BIO LLC, priority 2022, published 2025)
# System: pentylenetetrazol (PTZ)-induced ictal brain activity
# Assay: Modulation of pentylenetetrazol (PTZ)-induced seizures, BOLD fMRI in rats
# Format: in vivo, male Wistar rats
# Conditions: for PTZ-induced brain activity, positive control compounds: Alprazolam 3 mg/kg i.p., 1 dose, no dose printed for Diazepam
# Description: Functional MRI (fMRI) was performed using a high-field preclinical MRI system in anesthetized male Wistar rats in order to determine the modulation of pentylenetetrazol (PTZ)-induced ictal brain activity by chronic treatment with test compound (TC). […] Vehicle and 3 mg/kg Alprazolam served as controls (see, Table 11) Seizures were induced with PTZ in each experimental group. A schematic of the study design can be seen in FIG. 6. Various physiological parameters were also measured throughout the experiment including body weight, CO2 levels, blood pH, and heart rate. […] Vehicle and 3 mg/kg Alprazolam served as controls (see, Table 12).
Structure (SMILES),"PTZ-induced brain activity, positive control compounds","brain regions with statistical significance of BOLD fMRI AUC, Vehicle vs. Alprazolam (FIG. 7A, Alprazolam 3 mg/kg+PTZ, two-way ANOVA)"
CN1C(=O)CN=C(c2ccccc2)c2cc(Cl)ccc21 [Diazepam],effectively cancelled PTZ-induced brain activity with high statistical significance in all tested brain regions,
Cc1nnc2n1-c1ccc(Cl)cc1C(c1ccccc1)=NC2 [Alprazolam],effectively cancelled PTZ-induced brain activity with high statistical significance in all tested brain regions,in all
